Converted amounts (≈) assume the structure as drawn. Like-named read-outs stand apart in the source and are kept apart here.
Experiments:
P. granulosum = assay: In vitro MIC testing, antibacterial spectrum of activity; type: cell-based; conditions: P. granulosum [clinical isolates] (3 isolates)
Clostridium perfringens = assay: microbe, parasite or virus in culture; type: cell-based
Lactobacillus casei = assay: In vitro MIC testing against anaerobic bacteria; type: cell-based; conditions: Lacticaseibacillus casei, ATCC393; Lactobacillus casei 1722, ATCC 393
[1] = system: Lactobacillus acidophilus; assay: In vitro MIC testing against anaerobic bacteria; type: cell-based; conditions: Lactobacillus acidophilus 0681
Bifidobacterium bifidum = assay: In vitro MIC testing against anaerobic bacteria; type: cell-based; conditions: ATCC15696; Bifidobacterium bifidum 3965, ATCC 15696
Veillonella parvula = assay: In vitro MIC testing against anaerobic bacteria; type: cell-based; conditions: ATCC17745; Veillonella parvula 1272, ATCC 17745
E. coli = assay: In vitro MIC testing, antibacterial spectrum of activity; type: cell-based; conditions: E. coli [tetS] (7 isolates)
Fusobacterium nucleatum = assay: In vitro MIC testing against anaerobic bacteria; type: cell-based; conditions: ATCC25586; Fusobacterium nucleatum 3962, ATCC 25586; read-out: MIC
[2] = system: Prevotella melaninogenica; assay: In vitro MIC testing against anaerobic bacteria; type: cell-based
[3] = system: Peptostreptococcus micros; assay: In vitro MIC testing against anaerobic bacteria; type: cell-based; conditions: Parvimonas micra, read-out: MIC
[4] = system: Streptococcus spp. [Group C]; assay: In vitro MIC testing, antibacterial spectrum of activity; type: cell-based; conditions: Streptococcus spp. [Group C] (30 isolates)
S. epidermidis = assay: as above; type: cell-based, Staphylococcus epidermidis; conditions: for MIC50 / MIC90: Staphylococcus epidermidis; for MIC50: read-out: MIC50; for MIC90: read-out: MIC90
Clostridium difficile = assay: In vitro MIC testing against anaerobic bacteria; type: cell-based
Propionibacterium acnes = assay: In vitro MIC testing against anaerobic bacteria; type: cell-based; conditions: Cutibacterium acnes, read-out: MIC
P. avidum = assay: In vitro MIC testing, antibacterial spectrum of activity; type: cell-based; conditions: P. avidum [clinical isolates] (4 isolates)
S. pneumoniae = assay: as above; type: cell-based, Streptococcus pneumoniae
P. mirabilis = assay: as above; type: cell-based; conditions: Proteus mirabilis; P. mirabilis (30 isolates)
S. haemolyticus = assay: as above; type: cell-based; conditions: S. haemolyticus (33 isolates)
Bifidobacterium brevi = assay: In vitro MIC testing against anaerobic bacteria; type: cell-based; conditions: ATCC15698; Bifidobacterium brevi 3967, ATCC 15698
[5] = system: Porphyromonas asaccharolytica; assay: In vitro MIC testing against anaerobic bacteria; type: cell-based
K. pneumoniae = assay: In vitro MIC testing, antibacterial spectrum of activity; type: cell-based
S. pyogenes = assay: as above; type: cell-based
E. faecium = assay: as above; type: cell-based; conditions: for MIC / MIC50 / MIC90: Enterococcus faecium; for MIC50: read-out: MIC50; for MIC90: read-out: MIC90
P. aeruginosa = assay: as above; type: cell-based; conditions: Pseudomonas aeruginosa; P. aeruginosa (11 isolates)
[6] = system: Peptostreptococcus anaerobius; assay: In vitro MIC testing against anaerobic bacteria; type: cell-based
E. faecalis = assay: In vitro MIC testing, antibacterial spectrum of activity; type: cell-based
[7] = system: Fusobacterium necrophorum; assay: In vitro MIC testing against anaerobic bacteria; type: cell-based; conditions: ATCC25286; Fusobacterium necrophorum 3963, ATCC 25286; read-out: MIC
[8] = system: Streptococcus intermedius; assay: In vitro MIC testing against anaerobic bacteria; type: cell-based; conditions: ATCC27335; Streptococcus intermedius 1203, ATCC 27335
S. agalactiae = assay: In vitro MIC testing, antibacterial spectrum of activity; type: cell-based
[9] = system: Bacteroides thetaiotaomicron; assay: In vitro MIC testing against anaerobic bacteria; type: cell-based
Bifidobacterium longum = assay: In vitro MIC testing against anaerobic bacteria; type: cell-based; conditions: ATCC15707; Bifidobacterium longum 3968, ATCC 15707
Bacteroides fragilis = assay: In vitro MIC testing against anaerobic bacteria; type: cell-based
[10] = S. epidermidis [MRSE] (32 isolates)
[11] = S. epidermidis [MSSE] (31 isolates)
[12] = Klebsiella pneumoniae, K. pneumoniae (31 isolates)

`C[C@H]1c2cccc(O)c2C(=O)C2=C(O)[C@]3(O)C(=O)C(C(N)=O)=C(O)[C@@H](N(C)C)[C@@H]3[C@@H](O)[C@@H]21` [Doxycycline, doxycycline] was tested, and the “MIC Range” value (P. granulosum) was 0.5 to 1 µg/mL, the MIC (Clostridium perfringens) was 16 µg/mL (≈ 36 µM) and the MIC (Lactobacillus casei) was 2 µg/mL (≈ 4.5 µM). It also gave an MIC [1] of 2 µg/mL (≈ 4.5 µM), an MIC (Bifidobacterium bifidum) of 0.5 µg/mL (≈ 1.13 µM) and an MIC (Veillonella parvula) of 1 µg/mL (≈ 2.25 µM). The “MIC Range” value (E. coli) was 0.5 to 4 µg/mL, the MIC (Fusobacterium nucleatum) was 0.5 µg/mL (≈ 1.13 µM) and the MIC [2] was 16 µg/mL (≈ 36 µM). The MIC ([2]; Prevotella melaninogenica 3443, read-out: MIC) was 1 µg/mL (≈ 2.25 µM), the MIC ([3]; Peptostreptococcus micros 3432) was 0.12 µg/mL (≈ 0.27 µM) and the MIC ([3]; Peptostreptococcus micros 3545) was 0.5 µg/mL (≈ 1.13 µM). The “MIC Range” value [4] was 0.06 to 16 µg/mL, the MIC50 ([4]; read-out: MIC50) was 0.12 µg/mL (≈ 0.27 µM) and the MIC90 ([4]; read-out: MIC90) was 8 µg/mL (≈ 18 µM). For the same compound, the “MIC Range” value (S. epidermidis; [10]) was 0.12 to 8 µg/mL, the “MIC Range” value (S. epidermidis; [11]) was 0.06 to 1 µg/mL and the MIC50 (S. epidermidis; [10]) was 0.5 µg/mL (≈ 1.13 µM). For the same compound, the MIC90 (S. epidermidis; [10]) was 1 µg/mL (≈ 2.25 µM), the MIC50 (S. epidermidis; [11]) was 0.12 µg/mL (≈ 0.27 µM) and the MIC90 (S. epidermidis; [11]) was 1 µg/mL (≈ 2.25 µM). The MIC (Clostridium difficile; Clostridioides difficile) was 0.06 µg/mL (≈ 0.135 µM), the MIC (Clostridium difficile; Clostridium difficile 3584) was 0.06 µg/mL (≈ 0.135 µM) and the MIC (Propionibacterium acnes; ATCC11829, Propionibacterium acnes 1286, ATCC 11829) was 0.5 µg/mL (≈ 1.13 µM). For the same compound, the MIC (Propionibacterium acnes; Propionibacterium acnes 1713) was 0.12 µg/mL (≈ 0.27 µM), the “MIC Range” value (P. avidum) was 0.5 to 4 µg/mL and the “MIC Range” value (S. pneumoniae; S. pneumoniae [tetR] (5 isolates)) was 4-4 μg/mL. The “MIC Range” value (S. pneumoniae; S. pneumoniae [tetS] (5 isolates)) was “≦0.06-0.125 μg/mL”, the MIC50 (S. pneumoniae; Streptococcus pneumoniae, S. pneumoniae [PSSP] (32 isolates), read-out: MIC50) was 0.06 µg/mL (≈ 0.135 µM) and the MIC90 (S. pneumoniae; Streptococcus pneumoniae, S. pneumoniae [PSSP] (32 isolates), read-out: MIC90) was 0.12 µg/mL (≈ 0.27 µM). The MIC (S. pneumoniae; Streptococcus pneumoniae, S. pneumoniae strain PBS # 511, tetM) was 4 µg/mL (≈ 9 µM), the MIC50 (P. mirabilis) was greater than 32 µg/mL and the MIC90 (P. mirabilis) was greater than 32 µg/mL. For the same compound, the “MIC Range” value (S. haemolyticus) was 0.06 to 16 µg/mL, the MIC50 (S. haemolyticus; Staphylococcus haemolyticus, read-out: MIC50) was 0.5 µg/mL (≈ 1.13 µM) and the MIC90 (S. haemolyticus; Staphylococcus haemolyticus, read-out: MIC90) was 16 µg/mL (≈ 36 µM). The MIC (Bifidobacterium brevi) was 0.5 µg/mL (≈ 1.13 µM), the MIC ([5]; Porphyromonas asaccharolytica 3552, read-out: MIC) was 4 µg/mL (≈ 9 µM) and the MIC ([5]; Porphyromonas asaccharolytica 3557, read-out: MIC) was 2 µg/mL (≈ 4.5 µM). The “MIC Range” value (K. pneumoniae; K. pneumoniae [tetS] (7 isolates)) was 0.5 to 8 µg/mL, the MIC50 (K. pneumoniae; [12]) was 8 µg/mL (≈ 18 µM) and the MIC90 (K. pneumoniae; [12]) was greater than 32 µg/mL. The “MIC Range” value (S. pyogenes; S. pyogenes (32 isolates)) was 0.06 to 8 µg/mL, the “MIC Range” value (S. pyogenes; S. pyogenes [tetR] (5 isolates)) was 4 to 8 µg/mL and the “MIC Range” value (S. pyogenes; S. pyogenes [tetS] (5 isolates)) was “≦0.06-0.125 μg/mL”. The MIC (S. pyogenes; Streptococcus pyogenes, S. pyogenes strain PBS # 330, tetO) was 8 µg/mL (≈ 18 µM), the MIC (S. pyogenes; Streptococcus pyogenes, S. pyogenes strain PBS # 792, tetM) was 4 µg/mL (≈ 9 µM) and the MIC50 (S. pyogenes; Streptococcus pyogenes, S. pyogenes (32 isolates), read-out: MIC50) was 0.12 µg/mL (≈ 0.27 µM). The MIC90 (S. pyogenes; Streptococcus pyogenes, S. pyogenes (32 isolates), read-out: MIC90) was 4 µg/mL (≈ 9 µM), the “MIC Range” value (E. faecium; E. faecium [VRE] (30 isolates)) was 0.06 to 16 µg/mL and the “MIC Range” value (E. faecium; E. faecium [VSE] (32 isolates)) was 0.06 to 32 µg/mL. For the same compound, the “MIC Range” value (E. faecium; E. faecium [tetR] (6 isolates)) was 4 to 16 µg/mL, the MIC (E. faecium; E. faecium strain PBS # 965, tetM) was 4 µg/mL (≈ 9 µM) and the MIC (E. faecium; E. faecium strain PBS # 1323, tetK) was 4 µg/mL (≈ 9 µM). The MIC (E. faecium; E. faecium strain PBS # 1324, tetO) was 4 µg/mL (≈ 9 µM), the MIC50 (E. faecium; E. faecium [VRE] (30 isolates)) was 1 µg/mL (≈ 2.25 µM) and the MIC90 (E. faecium; E. faecium [VRE] (30 isolates)) was 8 µg/mL (≈ 18 µM). It also gave an MIC50 (E. faecium; E. faecium [VSE] (32 isolates)) of 0.5 µg/mL (≈ 1.13 µM), an MIC90 (E. faecium; E. faecium [VSE] (32 isolates)) of 16 µg/mL (≈ 36 µM) and an MIC50 (P. aeruginosa) greater than 32 µg/mL. For the same compound, the MIC90 (P. aeruginosa) was greater than 32 µg/mL, the MIC ([6]; Peptostreptococcus anaerobius 3526) was 2 µg/mL (≈ 4.5 µM) and the MIC ([6]; Peptostreptococcus anaerobius 3531) was 4 µg/mL (≈ 9 µM). For the same compound, the “MIC Range” value (E. faecalis; E. faecalis [VSE] (31 isolates)) was 0.12 to 16 µg/mL, the “MIC Range” value (E. faecalis; E. faecalis [tetR] (6 isolates)) was 2 to 16 µg/mL and the “MIC Range” value (E. faecalis; E. faecalis [tetS] (4 isolates)) was “≦0.06-0.125 μg/mL”. It also gave an MIC (E. faecalis; Enterococcus faecalis, E. faecalis strain PBS # 274, tetL) of 16 µg/mL (≈ 36 µM), an MIC (E. faecalis; Enterococcus faecalis, E. faecalis strain PBS # 276, tetM) of 8 µg/mL (≈ 18 µM) and an MIC (E. faecalis; Enterococcus faecalis, E. faecalis strain PBS # 949, tetS) of 2 µg/mL (≈ 4.5 µM). It also gave an MIC50 (E. faecalis; Enterococcus faecalis, E. faecalis [VSE] (31 isolates), read-out: MIC50) of 8 µg/mL (≈ 18 µM), an MIC90 (E. faecalis; Enterococcus faecalis, E. faecalis [VSE] (31 isolates), read-out: MIC90) of 8 µg/mL (≈ 18 µM) and an MIC [7] of 0.5 µg/mL (≈ 1.13 µM). The MIC [8] was 0.5 µg/mL (≈ 1.13 µM), the “MIC Range” value (S. agalactiae; S. agalactiae (31 isolates)) was 0.06 to 16 µg/mL and the “MIC Range” value (S. agalactiae; S. agalactiae [tetR] (7 isolates)) was 8 to 16 µg/mL. The “MIC Range” value (S. agalactiae; S. agalactiae [tetS] (3 isolates)) was 0.25-0.25 μg/mL, the MIC (S. agalactiae; Streptococcus agalactiae, S. agalactiae strain PBS # 316, tetO) was 8 µg/mL (≈ 18 µM) and the MIC (S. agalactiae; Streptococcus agalactiae, S. agalactiae strain PBS # 897, tetM) was 8 µg/mL (≈ 18 µM). For the same compound, the MIC50 (S. agalactiae; Streptococcus agalactiae, S. agalactiae (31 isolates), read-out: MIC50) was 8 µg/mL (≈ 18 µM), the MIC90 (S. agalactiae; Streptococcus agalactiae, S. agalactiae (31 isolates), read-out: MIC90) was 16 µg/mL (≈ 36 µM) and the MIC ([9]; Bacteroides thetaiotaomicron 3399) was 0.25 µg/mL (≈ 0.563 µM). It also gave an MIC ([9]; Bacteroides thetaiotaomicron 3496) of 16 µg/mL (≈ 36 µM), an MIC (Bifidobacterium longum) of 1 µg/mL (≈ 2.25 µM) and an MIC (Bacteroides fragilis; Bacteroides fragilis 3374, read-out: MIC) of 0.12 µg/mL (≈ 0.27 µM). For the same compound, the MIC (Bacteroides fragilis; Bacteroides fragilis 3479) was 16 µg/mL (≈ 36 µM).
